Source: ChEMBL document CHEMBL3044739, “Synthesis and cytotoxicity of novel N-sulfonyl-1,2,3,4-tetrahydroisoquinoline thiosemicarbazone derivatives” (Med Chem Res, 2013)
Converted amounts (≈) assume the structure as drawn.

Tests used:
Assay type in all cases: functional, cell-based
HepG2 = assay: Cytotoxicity against Homo sapiens (human) HepG2 cells assessed as survival after 3 days by crystal violet staining; conditions: HepG2, 72 h
[1] = Cytotoxicity against Homo sapiens (human) HuCCa1 cells assessed as survival after 3 days by crystal violet staining; conditions: HuCC-A1, 72 h
A549 = assay: Cytotoxicity against Homo sapiens (human) A549 cells assessed as survival after 3 days by crystal violet staining; conditions: A549, 72 h
MOLT-3 = assay: Cytotoxicity against Homo sapiens (human) MOLT3 cells assessed as survival after 3 days by crystal violet staining; conditions: MOLT-3, 72 h

Row | SMILES | IC50 (HepG2) | IC50 [1] | IC50 (A549) | IC50 (MOLT-3)
1 | COc1cc2c(cc1OC)C(/C(=N/NC(N)=S)c1ccccc1)N(S(=O)(=O)c1ccc([N+](=O)[O-])cc1)CC2 (centres undefined) | > 50 µg/mL | > 50 µg/mL | > 50 µg/mL | > 50 µg/mL
2 | C/C(=N\NC(N)=S)C1c2ccccc2CCN1S(=O)(=O)c1cccc([N+](=O)[O-])c1 (centres undefined) | 38.5 µg/mL (≈ 88.8 µM) | > 50 µg/mL | > 50 µg/mL | 18.1 µg/mL (≈ 41.7 µM)
3 | COc1ccc(S(=O)(=O)N2CCc3cc(OC)c(OC)cc3C2/C(C)=N/NC(N)=S)cc1 (centres undefined) | 10.5 µg/mL (≈ 21.9 µM) | 31 µg/mL (≈ 64.8 µM) | > 50 µg/mL | 2.13 µg/mL (≈ 4.45 µM)
4 | COc1cc2c(cc1OC)C(/C(C)=N/NC(N)=S)N(S(=O)(=O)c1ccc([N+](=O)[O-])cc1)CC2 (centres undefined) | > 50 µg/mL | > 50 µg/mL | > 50 µg/mL | 42.3 µg/mL (≈ 85.7 µM)
5 | COc1ccc(S(=O)(=O)N2CCc3ccccc3C2/C(=N/NC(N)=S)c2ccccc2)cc1 (centres undefined) | > 50 µg/mL | > 50 µg/mL | > 50 µg/mL | 8.44 µg/mL (≈ 17.6 µM)
6 | C/C(=N\NC(N)=S)C1c2ccccc2CCN1S(=O)(=O)c1ccc(C)cc1 (centres undefined) | 46 µg/mL (≈ 114 µM) | > 50 µg/mL | > 50 µg/mL | 19 µg/mL (≈ 47.2 µM)
7 | COc1cc([C@@H]2c3cc4c(cc3[C@@H](O[C@@H]3O[C@@H]5CO[C@@H](C)O[C@H]5[C@H](O)[C@H]3O)[C@H]3COC(=O)[C@H]23)OCO4)cc(OC)c1O [ETOPOSIDE] | 16 µg/mL (≈ 27.2 µM) |  |  | 0.024 µg/mL (≈ 0.0408 µM)
8 | COc1cc2c(cc1OC)C(/C(=N/NC(N)=S)c1ccccc1)N(S(=O)(=O)c1ccc(C)cc1)CC2 (centres undefined) | 21.5 µg/mL (≈ 41 µM) | > 50 µg/mL | > 50 µg/mL | 8.45 µg/mL (≈ 16.1 µM)
9 | COc1cc2c(cc1OC)C(C(=O)c1ccccc1)N(S(=O)(=O)c1ccc(C)cc1)CC2 (centres undefined) | > 50 µg/mL | > 50 µg/mL | > 50 µg/mL | > 50 µg/mL
10 | COc1cc2c(cc1OC)C(/C(C)=N/NC(N)=S)N(S(=O)(=O)c1ccc(C)cc1)CC2 (centres undefined) | > 50 µg/mL | > 50 µg/mL | > 50 µg/mL | > 50 µg/mL
11 | COc1ccc(S(=O)(=O)N2CCc3cc(OC)c(OC)cc3C2/C(=N/NC(N)=S)c2ccccc2)cc1 (centres undefined) | > 50 µg/mL | > 50 µg/mL | > 50 µg/mL | 10.4 µg/mL (≈ 19.3 µM)
12 | NC(=S)N/N=C(\c1ccccc1)C1c2ccccc2CCN1S(=O)(=O)c1ccc([N+](=O)[O-])cc1 (centres undefined) | > 50 µg/mL | > 50 µg/mL | > 50 µg/mL | 11.3 µg/mL (≈ 22.7 µM)
13 | Cc1ccc(S(=O)(=O)N2CCc3ccccc3C2/C(=N/NC(N)=S)c2ccccc2)cc1 (centres undefined) | > 50 µg/mL | > 50 µg/mL | > 50 µg/mL | 7.85 µg/mL (≈ 16.9 µM)
14 | COc1cccc2c1C(=O)c1c(O)c3c(c(O)c1C2=O)C[C@@](O)(C(=O)CO)C[C@@H]3O[C@H]1C[C@H](N)[C@H](O)[C@H](C)O1 [DOXORUBICIN] | 0.23 µg/mL (≈ 0.423 µM) | 0.35 µg/mL (≈ 0.644 µM) | 0.38 µg/mL (≈ 0.699 µM) | 
15 | C/C(=N\NC(N)=S)C1c2ccccc2CCN1S(=O)(=O)c1ccc([N+](=O)[O-])cc1 (centres undefined) | 32.3 µg/mL (≈ 74.6 µM) | > 50 µg/mL | > 50 µg/mL | 18.2 µg/mL (≈ 42.1 µM)
16 | COc1ccc(S(=O)(=O)N2CCc3ccccc3C2/C(C)=N/NC(N)=S)cc1 (centres undefined) | 33.5 µg/mL (≈ 80 µM) | > 50 µg/mL | > 50 µg/mL | 15.6 µg/mL (≈ 37.2 µM)
17 | NC(=S)N/N=C(/c1ccccc1)c1nccc2ccccc12 | 16 µg/mL (≈ 52.2 µM) | 35 µg/mL (≈ 114 µM) | 30 µg/mL (≈ 97.9 µM) | 0.72 µg/mL (≈ 2.35 µM)
18 | COc1cc2c(cc1OC)C(/C(=N/NC(N)=S)c1ccccc1)N(S(=O)(=O)c1ccc(Cl)cc1)CC2 (centres undefined) | > 50 µg/mL | > 50 µg/mL | > 50 µg/mL | 5.03 µg/mL (≈ 9.23 µM)
